Measured values from patent US7835013B2, “Interferometric detection system and method” (Vanderbilt University, priority 2007, dated 2010).
Like-named read-outs stand apart in the source and are kept apart here.

Key:
Calmodulin (CaM) = target: T1, Calmodulin (CaM) (Homo sapiens, UniProt P0DP23); experiment: BSI stop-flow label-free homogeneous binding to Calmodulin; settings: for Kd: 5 μM CaM, 12.5-100 μM Ca^2+, pH 7.5, 25° C.
T1 construct: purchased Sigma, St. Louis, Mo

Calmodulin = Calmodulin (Homo sapiens, UniProt P0DP23); settings: read-out: published Kd Calmodulin-calcium ion; cited from earlier work

control: change in signal above that observed in the absence of excess EGTA (Calmodulin (CaM); 5 μM CaM and 100 μM Ca^2+, both with excess EGTA (400 μM)): < 3% | Kd (Calmodulin (CaM); read-out: Kd CaM-Ca^2+ from kinetic analysis (single exponential, least squares)): 3.36 µM | Kd (Calmodulin (CaM); read-out: Kd CaM-Ca^2+ from steady-state values, Prism software): 17.8 µM
SMILES: [Ca+2] [Ca^2+]
Kd (Calmodulin): 1 to 10 µM
